# Results from paper PMC8840488, “Antidiabetic Activity and In Silico Molecular Docking of Polyphenols from Ammannia baccifera L. subsp. Aegyptiaca (Willd.) Koehne Waste: Structure Elucidation of Undescribed Acylated Flavonol Diglucoside” (Plants, 2022).
# Legend:
# [1] = system: β-glucosidase; experiment: In vitro β-glucosidase inhibition; assay type: biochemical; conditions: for β-glucosidase IC50: concentration range 75–600 µg/mL
# Experimental: The assay was performed in conformity with and used the same formula for amylase.
# [2] = DPPH antioxidant assay
# Experimental: The assay was carried out for AEEE and isolated phenolics according to Brand-Williams et al..
# [3] = ORAC antioxidant assay
# Text: The antioxidant assay was applied to AEEE and the isolated phenolics.
# [4] = Reducing power assay
# Experimental: In the reducing-power assay, the more antioxidant compounds convert the oxidated form of iron (Fe^+3) in ferric chloride to ferrous (Fe^+2), which leads to an increase in colored ferrous-TPTZ complexes.
# The assay was carried out on AEEE and the isolated phenolics (DeGraft-Johnson et al., 2007).
# [5] = molecular target: T1, α-amylase (Homo sapiens, UniProt P04746); experiment: In vitro α-amylase inhibition; assay type: biochemical; conditions: for IC50: concentration range 75–600 µg/mL
# T1 construct: purchased Sigma-Aldrich (Merck, Darmstadt, Germany)
# T1 sequence (P04746 16-511): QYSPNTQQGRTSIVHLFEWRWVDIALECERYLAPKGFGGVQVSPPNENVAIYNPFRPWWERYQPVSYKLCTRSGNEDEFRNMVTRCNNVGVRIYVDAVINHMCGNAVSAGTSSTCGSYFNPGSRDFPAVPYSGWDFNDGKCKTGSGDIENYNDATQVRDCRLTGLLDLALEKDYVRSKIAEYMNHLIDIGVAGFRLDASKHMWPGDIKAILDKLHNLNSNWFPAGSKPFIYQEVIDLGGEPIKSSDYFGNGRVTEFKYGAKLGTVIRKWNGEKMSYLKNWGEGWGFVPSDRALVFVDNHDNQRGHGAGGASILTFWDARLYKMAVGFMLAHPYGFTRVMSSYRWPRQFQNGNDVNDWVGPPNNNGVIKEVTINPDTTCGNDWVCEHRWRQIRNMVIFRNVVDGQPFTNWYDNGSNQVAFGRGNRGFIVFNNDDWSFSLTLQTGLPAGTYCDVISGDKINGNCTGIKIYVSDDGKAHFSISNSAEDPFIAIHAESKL
# Text: The assay was implemented in accordance with. […] The percentage of inhibition can be estimated using the following Equation: 100−[{A sample/ Acontrol ×100]
# [6] = molecular target: T2, pancreatic lipase (Homo sapiens, UniProt P16233); experiment: In vitro pancreatic lipase inhibition; assay type: biochemical; conditions: for IC50: concentration range 12–100 µg/mL
# T2 sequence (P16233 17-465): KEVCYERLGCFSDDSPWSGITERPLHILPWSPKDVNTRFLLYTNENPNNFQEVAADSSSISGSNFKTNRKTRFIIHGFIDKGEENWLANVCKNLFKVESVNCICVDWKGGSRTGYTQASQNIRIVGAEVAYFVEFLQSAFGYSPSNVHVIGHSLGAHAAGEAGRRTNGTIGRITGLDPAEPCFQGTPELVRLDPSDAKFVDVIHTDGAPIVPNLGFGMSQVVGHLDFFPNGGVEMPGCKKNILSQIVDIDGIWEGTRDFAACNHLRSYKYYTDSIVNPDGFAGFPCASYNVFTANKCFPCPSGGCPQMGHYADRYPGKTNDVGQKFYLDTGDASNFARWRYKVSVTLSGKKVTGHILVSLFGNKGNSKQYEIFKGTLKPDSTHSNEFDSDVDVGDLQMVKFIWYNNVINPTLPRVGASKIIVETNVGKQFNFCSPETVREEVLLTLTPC
# Experimental: The determination of the percentage inhibition of pancreatic lipase was calculated as prescribed by Hegazi et al., using the same formula for amylase.
Compound,β-glucosidase % Inhibition ([1]; at 600 µg/mL),β-glucosidase IC50 [1],DPPH IC50 [2],ORAC IC50 [3],Ferrous reducing assay IC50 [4],inhibition at 300 µg/mL [5],IC50 [5],β-glucosidase % Inhibition ([1]; at 300 µg/mL),IC50 [6],Reducing power ([4]; compared with quercetin as standard),inhibition at 100 µg/mL [6]
"C[C@H]1O[C@H](O[C@H]2[C@H](O)[C@@H](O)[C@@H](O[C@H]3[C@H](O)[C@@H](O)C(O)O[C@@H]3CO)O[C@@H]2CO)[C@H](O)[C@@H](O)[C@@H]1N[C@H]1C=C(CO)[C@@H](O)[C@H](O)[C@H]1O (stereo partly drawn) [Acarbose, reference compound]",95.2 ± 2.30%,110.6 ± 3.20 µg/mL,,,,,,,,,
"O=C(OC[C@H]1O[C@@H](Oc2c(-c3cc(O)c(O)c(O)c3)oc3cc(O[C@@H]4O[C@H](CO)[C@@H](O)[C@H](O)[C@H]4O)cc(O)c3c2=O)[C@H](O)[C@@H](O)[C@@H]1O)c1cc(O)c(O)c(O)c1 [Compound 1, myricetin 3-O-β-^4C1-(6′′-O-galloyl glucopyranoside)-7-O-β-^4C1-glucopyranoside]",,72.77 ± 2.67 µg/mL,2.37 ± 0.56 µg/mL,2.01 ± 0.23 µg/mL,158.13 ± 2.82 µg/mL,91.4 ± 2.45%,198 µM,92.70 ± 1.42 %,40.3 µM,comparable to that of standard quercetin,87 ± 2.38%
"C[C@@H]1O[C@@H](OC[C@H]2O[C@@H](Oc3c(-c4ccc(O)cc4)oc4cc(O)cc(O)c4c3=O)[C@H](O)[C@@H](O)[C@@H]2O)[C@H](O)[C@H](O)[C@H]1O [Compound 2, kaempfeol 3-O-rutinoside]",,,> 100 ± 13.67 µg/mL,> 100 ± 10.17 µg/mL,,80.4 ± 3.81%,348 µM,,228 µM,,35.8 ± 3.84%
"C[C@@H]1O[C@@H](OC[C@H]2O[C@@H](Oc3c(-c4ccc(O)c(O)c4)oc4cc(O)cc(O)c4c3=O)[C@H](O)[C@@H](O)[C@@H]2O)[C@H](O)[C@H](O)[C@H]1O [Compound 3, quercetin 3-O-rutinoside]",,104 ± 3.80 µg/mL,8.81 ± 1.05 µg/mL,8.02 ± 0.85 µg/mL,,72.1 ± 3.49%,366 µM,66 ± 3.47 %,66.2 µM,,82.2 ± 2.53%
"O=C(O[C@@H]1[C@@H](OC(=O)c2cc(O)c(O)c(O)c2)[C@H](O)O[C@@H]2COC(=O)c3cc(O)c(O)c(O)c3-c3c(cc(O)c(O)c3O)C(=O)O[C@@H]12)c1cc(O)c(O)c(O)c1 [Compound 4, tellimagranidine-I]",,115.21 ± 4.90 µg/mL,4.64 ± 0.39 µg/mL,4.14 ± 1.27 µg/mL,,78.9 ± 4.13%,276 µM,58.44 ± 3.61 %,343 µM,,19.5 ± 4.36%
"CCCCCCCCCCC[C@@H](C[C@@H]1OC(=O)[C@H]1CCCCCC)OC(=O)[C@H](CC(C)C)NC=O [Orlistat, reference compound]",,,,,,,,,,,57 ± 4.5%

# More lines, main results first:
β-glucosidase % Inhibition ([1]; at 600 µg/mL),β-glucosidase IC50 [1],DPPH IC50 [2],ORAC IC50 [3],Ferrous reducing assay IC50 [4],inhibition at 300 µg/mL [5],IC50 [5],β-glucosidase % Inhibition ([1]; at 300 µg/mL),IC50 [6],Compound,Reducing power ([4]; compared with quercetin as standard),inhibition at 100 µg/mL [6]
,100.23 ± 3.80 µg/mL,4.81 ± 0.73 µg/mL,4.43 ± 0.68 µg/mL,,78 ± 1.15%,448 µM,68.43 ± 2.30 %,549 µM,"O=C(O[C@H]1[C@H](O)[C@@H](CO)OC(O)[C@@H]1OC(=O)c1cc(O)c(O)c(O)c1)c1cc(O)c(O)c(O)c1 (stereo partly drawn) [Compound 5, 2,3-α, β-digalloy glucose]",,18.7 ± 3.1%
,,,28.0 ± 14.31 µg/mL,,,,,,"Cc1c(C)c2c(c(C)c1O)CCC(C)(C(=O)O)O2 (stereo not drawn) [Trolox, reference compound]",,
,,1.83 ± 1.41 µg/mL,,,,,,,"O=C1O[C@H]([C@@H](O)CO)C(O)=C1O [Vitamin C, reference compound]",,
